According to patent US20260109700A1, “NITROGEN-CONTAINING HETEROCYCLIC COMPOUNDS AND PHARMACEUTICALLY ACCEPTABLE SALTS THEREOF, PREPARATION METHOD THEREFOR, AND THE USE THEREOF” (NEUSHEN THERAPEUTICS (SHANGHAI) CO., LTD, priority 2022, published 2026):

Key:
[1] = molecular target: T1, human M4 receptor (Homo sapiens, UniProt P08173); test: PAM activity on M4 receptor, FLIPR CALCIUM 6 assay in M4-Gα15-CHO cells with acetylcholine; assay type: cell-based; conditions: PAM mode with acetylcholine agonist, FLIPR calcium signal
T1 construct: expressed in transfected cells
T1 sequence (P08173 1-479): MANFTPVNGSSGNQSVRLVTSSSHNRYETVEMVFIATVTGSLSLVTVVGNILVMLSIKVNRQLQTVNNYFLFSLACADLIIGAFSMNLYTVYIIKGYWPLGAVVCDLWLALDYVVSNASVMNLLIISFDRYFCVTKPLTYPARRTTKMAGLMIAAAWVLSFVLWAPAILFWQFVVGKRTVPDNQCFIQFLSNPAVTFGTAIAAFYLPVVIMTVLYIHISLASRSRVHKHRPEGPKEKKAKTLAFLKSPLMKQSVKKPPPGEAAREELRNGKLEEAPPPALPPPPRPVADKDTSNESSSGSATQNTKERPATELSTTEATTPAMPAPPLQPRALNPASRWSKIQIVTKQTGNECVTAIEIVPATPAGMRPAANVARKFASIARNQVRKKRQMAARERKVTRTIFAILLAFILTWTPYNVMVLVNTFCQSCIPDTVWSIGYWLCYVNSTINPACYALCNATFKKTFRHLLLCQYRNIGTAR
Protocol: The activity of compounds on M4 receptor was determined by FLIPR CALCIUM 6 ASSAY KIT using a stable transfected cell line expressing human M4 receptor (M4-Gα15-CHO).
1. This study uses a CHO cell line stably expressing M4-Gα15 receptor, which expresses human CHRM4 and GNA15 genes, respectively.
2. Cell treatment: M4-Gα15-CHO cells were cultured in F-12 medium containing 10% fetal bovine serum, 0.4 mg/mL hygromycin B, and 0.8 mg/mL geneticin G418, with a culture temperature of 37° C. and a CO2 concentration of 5%. The old media was removed and the cells were washed once with phosphate buffered saline. 1 mL of trypsin solution was then added, and the mixture was incubated at 37° C. for approximately 2 minutes. After the cells were detached from the dish, approximately 5 mL of complete media pre-warmed at 37° C. was added. The cell suspension was gently pipetted to separate the aggregated cells. The cell suspension was transferred to a sterile centrifuge tube and centrifuged at 1000 rpm for 5 minutes.
1. Cell plating: M4-Gα15-CHO cells were digested and collected, then resuspended and counted, and seeded into a 384-well cell plate at a density of 1.2×10^4 cells/25 μL/well. The cell plate was then incubated in a 5% CO2 incubator at 37° C. for approximately 20 hours.
2. Preparation of loading buffer according to the instructions of FLIPR CALCIUM 6 ASSAY KIT after 24 hours: Component A was freeze-thawed to room temperature, and diluted with assay buffer and probenecid solution to obtain a loading buffer, which was kept at room temperature for later use.
3. The medium was removed from the cell plate, and 35 µL of loading buffer was quickly added to each well. After centrifugation, the cell plate was incubated at 37° C. in the dark for 120 minutes.
4. A working solution of the compound to be tested was prepared, 5 μL of which was transferred to the corresponding cell wells, and incubated at 37° C. in the dark for 30 minutes.
5. 30 nM acetylcholine agonist working solution was prepared and transferred to a 384-well loading plate at 20 μL/well.
6. The cell plate, the loading plate, and the pipette tip were placed at the corresponding positions of the FLIPR instrument. 10 μL of the agonist diluted in step 5 was added to the experimental wells using FLIPR, and data were collected at a wavelength of 515 nm to 575 nm.
7. The signal value was plotted against compound concentration. Curve fitting and EC50 calculation were performed by nonlinear regression method using GraphPad Prism software.
1. 0.5 mol/L 2-(4-(2-hydroxyethyl)piperazine)ethanesulfonic acid buffer was mixed with Hanks' balanced salt solution (pH 7.4) at a volume ratio of 1:24 to prepare an assay buffer. 10 mL of assay buffer was added to a vial of CALCIUM 6 ASSAY KIT Component A in the form of lyophilized powder, and aliquoted and stored at −20° C.
2. Probenecid powder was dissolved in 1 mol/L sodium hydroxide solution to a final concentration of […]. The assay buffer, freeze-thawed Component A, and probenecid solution were mixed at a volume ratio of 44:5:1 to prepare a loading buffer.

[2] = Pharmacokinetic properties in vivo in mice (iv and oral); conditions: mouse, plasma, CD-1 mice, oral 2.0 mg/kg; for bioavailability / clearance / Vd / Cmax: iv 1.0 mg/kg; for bioavailability: read-out: Bioavailability F; for clearance: read-out: Clearance CL; for Vd: read-out: Volume of distribution at steady state Vdss; for AUC(0-t): read-out: Area under the curve AUC0-last, po; for half-life: read-out: Half-life T1/2, po (converted); for Cmax: read-out: Peak concentration Cmax
Protocol: The compounds obtained in the examples of the present disclosure were evaluated for their pharmacokinetic properties in vivo in CD-1 mice.
The compounds were tested for their pharmacokinetic characteristics in rodents after intravenous injection and oral administration following standard protocols. In the experiment, the candidate compound was prepared into a clear solution or suspension with a specified vehicle, and administered to three mice via single-dose intravenous injection and oral administration, respectively. The vehicle for both intravenous injection and oral administration was 5% dimethyl sulfoxide+95% (10% polyethylene glycol (15)-hydroxystearate in water). Whole blood samples within 24 hours were collected into a commercial EDTA2K anticoagulant tube, followed by centrifugation to obtain the upper plasma sample, and acetonitrile solution containing internal standard was added to precipitate proteins. After centrifugation, the supernatant was mixed with an equal volume of water, and after another centrifugation, the supernatant was taken for injection. Plasma concentration was quantitatively analyzed using LCMS/MS analysis method, and pharmacokinetic parameters were calculated.

[3] = tested on: mice; conditions: genetic mouse model of schizophrenia; cited from earlier work
[4] = tested on: patients with schizophrenia; conditions: phase Ib; cited from earlier work
[5] = tested on: patients; conditions: cited from earlier work

For Cc1nnc(C)c2c1CN(C(=O)CC1CN(c3ccnc(C(F)(F)F)c3)C1)C2 [Example 24], the EC50 [1] was 387 nM.
Work on Cc1nnc(N2CCC2)c2c1CN(C(=O)CC1CN(c3ccnc(C(F)(F)F)c3)C1)C2 [Example 12] yielded an EC50 [1] of 350 nM, a bioavailability [2] of 86.6% and a clearance [2] of 17.1 mL/min/kg. For the same compound, the Vd [2] was 2.3 L/kg, the AUC(0-t) [2] was 1690 ng·h/mL and the half-life [2] was 1.13 h. The Cmax [2] was 614 ng/mL.
Cc1nnc(C)c2c1CN(C(=O)CC1CN(c3ccnc(SC(F)(F)F)c3)C1)C2 [Example 68] showed an EC50 [1] of 480 nM.
For Cc1nsc(N2CC(CC(=O)N3Cc4c(C)nnc(N5CCC5)c4C3)C2)n1 [Example 50], the EC50 [1] was 1780 nM.
In the case of Cc1nnc(C2CC2)c2c1CN(C(=O)CC1CN(c3ccnc(OCC(F)(F)F)c3)C1)C2 [Example 98], the EC50 [1] is reported as 1130 nM.
For Cc1c(Cc2ccc(-n3cccn3)cc2)cc2c(c1F)CN([C@H]1COCC[C@@H]1O)C2=O [TAK-071], the “deficits in memory cognition, social competence, and sensory-motor gating” value [3] is listed as “significantly ameliorates”.
Cc1nnc(C)c2c1CN(C(=O)CC1CN(c3ccnc(O[C@H](C)C(F)(F)F)c3)C1)C2 [Example 89] gave an EC50 [1] of 290 nM, a bioavailability [2] of 80.6% and a clearance [2] of 7.65 mL/min/kg. The Vd [2] was 3.72 L/kg, the AUC(0-t) [2] was 3470 ng·h/mL and the half-life [2] was 4.65 h. For the same compound, the Cmax [2] was 345 ng/mL.
With CCc1nnc(C)c2c1CN(C(=O)CC1CN(c3ccnc(OCC(F)(F)F)c3)C1)C2 [Example 110] the EC50 [1] was 900 nM.
Compound Cc1nnc(C)c2c1CN(C(=O)CC1CN(c3ccnc(OCC(F)(F)F)c3)C1)C2 [Example 67] has an EC50 [1] of 390 nM, a bioavailability [2] of 82.7% and a clearance [2] of 3.32 mL/min/kg. It also gave a Vd [2] of 1.53 L/kg, an AUC(0-t) [2] of 8040 ng·h/mL and a half-life [2] of 4.78 h. The Cmax [2] was 827 ng/mL.
In the case of Cc1cc(C)c2c(n1)CN(C(=O)CC1CN(c3ccnc(C(F)(F)F)c3)C1)C2 [CVL-231], the PANSS total score [4] is given as “significantly reduce”.
For CCCCCCOc1nsnc1C1=CCCN(C)C1 [Xanomeline], the “toxic and side effects” value ([5]; peripheral nervous system and digestive tract) is listed as “serious toxic and side effects” and the “cognitive function of patients” value ([5]; phase II clinical trial, Alzheimer's disease) is listed as “improvement in the cognitive function”.
Cc1nnc(N2CCC2)c2c1CN(C(=O)CC1CN(c3ccnc(C(F)(F)F)c3)C1C)C2 (stereo not drawn) [Example 51] gave an EC50 [1] of 1370 nM.
With Cc1nnc(C)c2c1CN(C(=O)CC1CN(c3ccnc(O[C@@H](C)C(F)(F)F)c3)C1)C2 [Example 116] the EC50 [1] was 580 nM.
Cc1nnc(N2CCC2)c2c1CN(C(=O)CC1CN(c3ccnc(OCC(F)(F)F)c3)C1)C2 [Example 47] showed an EC50 [1] of 250 nM.
